# From ChEMBL document CHEMBL1201862, “PubChem BioAssay data set” (2004)
# Active and inactive are the calls of the source.
# How the values were obtained:
# [1] = test system: BJ; assay: cells; assay type: functional, cell-based; settings: Homo sapiens
# [2] = test system: BJ; assay: growth inhibition of engineered Ras-driven BJ cells – cell-based, alamar blue fluorescence, cherrypicked samples, dose response (AID 2631); assay type: functional; settings: Homo sapiens;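 further: confirmatory dose-response assay in RAS-dependent BJ fibroblasts engineered with TERT, LT and ST, with cytotoxicity read by fluorescence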
# [3] = test system: BJ; assay: BJ-TERT fibroblast viability loss – cell-based, RAS-independent, luminescence, dose response (AID 1933); assay type: functional; settings: Homo sapiens
# [4] = test system: INS1; assay: INS-1E survival protection against cytokine death – cell-based, luminescence, retest, dose response (AID 449756); assay type: functional; settings: Rattus norvegicus;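 further: cell death triggered by IL-1 beta plus TNF-alpha plus IFN-gamma mixture; protective hits raise ATP signal compared with cytokine alone wells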
# [5] = DRD fibroblast viability loss – cell-based, non-viral oncogenic, luminescence, dose response (AID 1934); assay type: functional; settings: Homo sapiens
# [6] = test system: BJ; assay: BJ-TERT-LT-ST fibroblast viability loss – cell-based, RAS-independent, luminescence, dose response (AID 1935); assay type: functional; settings: Homo sapiens;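 further: BJ fibroblasts immortalized with TERT plus LT and ST oncogenes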
# [7] = cells; assay type: functional, cell-based; settings: HEK-CNG
# [8] = target: Galanin receptor type 3 (Homo sapiens, UniProt O60755); assay: Fluorescence-based cell-based primary high throughput dose response assay to identify antagonists of the Galanin Receptor 3 (GalR3).; assay type: functional
# [9] = target: T1, Replicative DNA helicase DnaB (Mycobacterium tuberculosis, UniProt P9WMR3); assay: DnaB intein splicing inhibitors, dose response, biochemical, cell-free fluorescence (AID 449749); assay type: functional
# T1 sequence (P9WMR3 whole entry): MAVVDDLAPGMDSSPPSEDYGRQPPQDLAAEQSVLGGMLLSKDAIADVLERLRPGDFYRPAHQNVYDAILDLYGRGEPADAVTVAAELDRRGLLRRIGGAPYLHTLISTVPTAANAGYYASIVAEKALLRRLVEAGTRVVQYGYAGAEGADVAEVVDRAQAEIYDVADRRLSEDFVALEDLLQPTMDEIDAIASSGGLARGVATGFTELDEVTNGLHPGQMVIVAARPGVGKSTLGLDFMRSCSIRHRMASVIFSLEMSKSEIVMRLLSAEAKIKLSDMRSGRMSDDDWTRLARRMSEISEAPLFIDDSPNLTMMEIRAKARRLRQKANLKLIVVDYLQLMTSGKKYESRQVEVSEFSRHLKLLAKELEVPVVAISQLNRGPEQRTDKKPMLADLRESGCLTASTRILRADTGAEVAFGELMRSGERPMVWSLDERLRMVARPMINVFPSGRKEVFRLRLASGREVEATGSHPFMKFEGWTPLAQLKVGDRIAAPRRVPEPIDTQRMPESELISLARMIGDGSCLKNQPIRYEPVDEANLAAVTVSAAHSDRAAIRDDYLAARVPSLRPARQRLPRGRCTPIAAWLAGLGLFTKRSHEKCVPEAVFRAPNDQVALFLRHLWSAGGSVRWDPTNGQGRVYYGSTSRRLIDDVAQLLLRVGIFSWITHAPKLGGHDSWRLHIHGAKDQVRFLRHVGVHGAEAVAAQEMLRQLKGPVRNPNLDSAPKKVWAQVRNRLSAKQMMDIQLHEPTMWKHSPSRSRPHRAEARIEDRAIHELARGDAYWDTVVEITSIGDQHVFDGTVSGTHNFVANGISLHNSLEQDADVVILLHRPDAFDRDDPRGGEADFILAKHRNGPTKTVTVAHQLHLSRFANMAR
# [10] = target: Paired box protein Pax-8 (Homo sapiens, UniProt Q06710); assay: PAX8 transcriptional activity inhibition in RMG-I – RMG-I cells, luciferase, cherry-pick, dose response (AID 687027); assay type: functional, cell-based;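 further: luciferase reporter driven by Pax8 target thyroperoxidase promoter measured by SteadyGlo luminescence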
# [11] = test system: HEK293; assay: EBV LMP1 TES2 canonical NF-kB signalling blockers – cell-based, HEK293, luciferase, cherry-pick, dose response (AID 588343); assay type: functional; settings: Homo sapiens
# [12] = target: T2, Protein RecA (Mycobacterium tuberculosis, UniProt P9WHJ3); assay: Fluorescence Cell-Free Homogeneous Dose Retest to Identify Inhibitors of RecA-Intein Splicing Activity. [Related pubchem assays (depositor defined):AID2097, AID2223, AID489010, AID492950]; assay type: functional
# T2 sequence (P9WHJ3 whole entry): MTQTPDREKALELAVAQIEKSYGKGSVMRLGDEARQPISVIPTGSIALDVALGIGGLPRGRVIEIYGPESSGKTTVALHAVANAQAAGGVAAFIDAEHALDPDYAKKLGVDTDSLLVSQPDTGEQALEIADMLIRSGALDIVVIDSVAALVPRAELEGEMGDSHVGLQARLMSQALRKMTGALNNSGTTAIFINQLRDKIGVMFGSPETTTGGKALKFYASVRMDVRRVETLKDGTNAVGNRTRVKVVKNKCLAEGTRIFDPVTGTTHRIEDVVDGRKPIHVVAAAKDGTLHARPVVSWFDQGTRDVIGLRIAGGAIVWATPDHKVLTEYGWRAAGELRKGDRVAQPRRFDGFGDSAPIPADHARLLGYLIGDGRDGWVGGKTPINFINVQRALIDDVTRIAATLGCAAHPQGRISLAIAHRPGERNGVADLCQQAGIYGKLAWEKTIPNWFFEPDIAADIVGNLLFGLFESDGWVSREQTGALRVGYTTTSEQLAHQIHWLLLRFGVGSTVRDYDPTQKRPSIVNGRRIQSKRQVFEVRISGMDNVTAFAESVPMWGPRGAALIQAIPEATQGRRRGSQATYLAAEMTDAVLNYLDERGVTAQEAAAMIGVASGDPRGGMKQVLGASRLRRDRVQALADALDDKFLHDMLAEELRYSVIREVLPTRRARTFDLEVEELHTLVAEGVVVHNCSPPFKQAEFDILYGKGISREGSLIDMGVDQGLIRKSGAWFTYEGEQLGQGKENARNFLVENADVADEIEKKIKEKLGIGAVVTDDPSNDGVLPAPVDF
# [13] = target: DNA topoisomerase (Yersinia pestis, UniProt A0A2S9PM60); assay: Yersinia topoisomerase I cleavage product accumulation – biochemical, cherry-pick, dose response (AID 588525)
# [14] = target: T3, Delta-type opioid receptor (Homo sapiens, UniProt P41143); assay: HTS Image-Based Screen for Agonists of the DOR Receptor. [Related pubchem assays (depositor defined):AID1777, AID1786, AID2133]; assay type: functional
# [15] = test system: HeLa; assay: Cytotoxicity counterscreen assay for transcriptional activators of heat shock protein 70 (Hsp70). [Related pubchem assays: 1203, 1252 ]; assay type: functional; settings: Homo sapiens;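 further: cells exposed to compound for 16 hours before readout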
# [16] = target: Beta Lactamase (Pseudomonas aeruginosa, UniProt Q932Y6); assay: BLA reporter interference, concentration series – BLA reporter cells, FRET fluorescence, artefact control for TLR9-MyD88 binding inhibitor project, dose response (AID 588341); assay type: cell-based;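 further: cell based assay in CHO-K1 cells stably expressing beta-lactamase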
# [17] = target: G-protein coupled receptor 55 (Homo sapiens, UniProt Q9Y2T6); assay: inhibition of LPI-stimulated GPR55 beta-arrestin translocation – imaging, U2OS, beta-arrestin-GFP, LPI agonist, primary screen (AID 2013); assay type: functional;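 further: antagonist potency measured as reduced agonist-driven arrestin aggregation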
# [18] = target: Beta-galactosidase (Escherichia coli, UniProt Q8VNN2); assay type: functional
# [19] = NIH-3T3 fibroblast cytotoxicity, dose response, cytotoxicity control, cell-based, fluorescence, Alamar Blue, secondary assay (AID 2327); assay type: functional;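 further: NIH-3T3 mouse fibroblasts cultured with fluconazole at 8 µg/mL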
# [20] = target: T4, Kappa-type opioid receptor (Homo sapiens, UniProt P41145); assay type: functional
# [21] = test system: CHO; assay: CHO cell viability loss, potency – luminescence, cytotoxicity control for TLR9-MyD88 binding inhibitor project, dose response (AID 588339); assay type: functional, cell-based, hamster; settings: Cricetulus griseus;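 further: CHO cells stably coexpressing TLR9 and MyD88 fusions from primary screen; compound exposure lasted 48 hours before viability readout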
# [22] = target: T3, Delta-type opioid receptor; assay: HTS Image-Based Screen for Antagonists of the DOR Receptor. [Related pubchem assays (depositor defined):AID1777, AID1785, AID1786, AID2133]; assay type: functional
# [23] = target: Mu-type opioid receptor (Homo sapiens, UniProt P35372); assay: HTS Image-Based Screen for Agonists of the MOR Receptor. [Related pubchem assays (depositor defined):AID1777, AID1785, AID1786, AID2133]; assay type: functional;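 further: imaging of beta-arrestin GFP recruitment into spots after receptor activation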
# [24] = target: T4, Kappa-type opioid receptor; assay type: functional; remark: listed apart in the source
# [25] = fluconazole-exposed Candida albicans growth modulators – fluorescence, retest, confirmation (AID 2467); assay type: functional, cell-based
# T4 sequence (P41145 whole entry, the tested form may be a part): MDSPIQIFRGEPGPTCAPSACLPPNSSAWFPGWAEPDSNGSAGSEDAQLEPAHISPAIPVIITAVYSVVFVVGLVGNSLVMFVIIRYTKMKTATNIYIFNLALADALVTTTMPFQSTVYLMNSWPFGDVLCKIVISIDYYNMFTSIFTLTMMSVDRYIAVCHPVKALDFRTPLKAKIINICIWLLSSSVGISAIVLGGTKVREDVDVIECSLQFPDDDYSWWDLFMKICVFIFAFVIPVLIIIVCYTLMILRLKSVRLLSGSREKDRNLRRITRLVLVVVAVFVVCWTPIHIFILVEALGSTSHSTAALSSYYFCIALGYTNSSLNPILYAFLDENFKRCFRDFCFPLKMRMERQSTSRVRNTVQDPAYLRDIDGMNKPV
# T3 sequence (P41143 whole entry): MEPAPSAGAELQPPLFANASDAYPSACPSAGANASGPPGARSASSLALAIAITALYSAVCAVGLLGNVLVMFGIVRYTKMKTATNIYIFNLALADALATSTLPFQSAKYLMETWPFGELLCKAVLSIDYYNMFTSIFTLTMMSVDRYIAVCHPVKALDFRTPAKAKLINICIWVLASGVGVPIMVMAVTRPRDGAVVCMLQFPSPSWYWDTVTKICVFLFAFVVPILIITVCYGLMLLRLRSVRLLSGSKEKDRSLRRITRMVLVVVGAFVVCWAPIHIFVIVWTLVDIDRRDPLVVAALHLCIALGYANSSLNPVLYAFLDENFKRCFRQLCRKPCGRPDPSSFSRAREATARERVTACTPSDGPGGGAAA
# Sequence of Mu-type opioid receptor (P35372 whole entry): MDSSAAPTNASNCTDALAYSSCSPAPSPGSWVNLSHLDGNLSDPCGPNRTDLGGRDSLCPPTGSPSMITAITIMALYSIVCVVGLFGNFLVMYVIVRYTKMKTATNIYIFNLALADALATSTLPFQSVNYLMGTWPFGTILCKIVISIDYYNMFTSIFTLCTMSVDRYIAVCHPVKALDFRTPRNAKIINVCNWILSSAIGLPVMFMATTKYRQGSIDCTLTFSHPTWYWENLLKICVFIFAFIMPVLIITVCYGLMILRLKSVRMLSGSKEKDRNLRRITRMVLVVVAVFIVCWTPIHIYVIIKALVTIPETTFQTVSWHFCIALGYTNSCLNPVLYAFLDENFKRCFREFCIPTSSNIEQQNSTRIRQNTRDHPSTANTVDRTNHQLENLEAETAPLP
# Sequence of Galanin receptor type 3 (O60755 whole entry): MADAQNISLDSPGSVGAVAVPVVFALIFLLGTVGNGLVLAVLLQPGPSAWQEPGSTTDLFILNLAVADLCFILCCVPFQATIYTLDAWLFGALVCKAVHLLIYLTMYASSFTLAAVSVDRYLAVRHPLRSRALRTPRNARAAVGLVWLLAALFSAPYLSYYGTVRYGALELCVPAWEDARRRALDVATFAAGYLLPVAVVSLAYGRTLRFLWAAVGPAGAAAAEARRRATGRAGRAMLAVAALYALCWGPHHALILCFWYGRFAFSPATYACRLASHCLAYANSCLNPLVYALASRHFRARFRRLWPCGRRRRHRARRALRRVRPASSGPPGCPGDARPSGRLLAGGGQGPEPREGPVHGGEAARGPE
# Sequence of DNA topoisomerase (A0A2S9PM60 whole entry): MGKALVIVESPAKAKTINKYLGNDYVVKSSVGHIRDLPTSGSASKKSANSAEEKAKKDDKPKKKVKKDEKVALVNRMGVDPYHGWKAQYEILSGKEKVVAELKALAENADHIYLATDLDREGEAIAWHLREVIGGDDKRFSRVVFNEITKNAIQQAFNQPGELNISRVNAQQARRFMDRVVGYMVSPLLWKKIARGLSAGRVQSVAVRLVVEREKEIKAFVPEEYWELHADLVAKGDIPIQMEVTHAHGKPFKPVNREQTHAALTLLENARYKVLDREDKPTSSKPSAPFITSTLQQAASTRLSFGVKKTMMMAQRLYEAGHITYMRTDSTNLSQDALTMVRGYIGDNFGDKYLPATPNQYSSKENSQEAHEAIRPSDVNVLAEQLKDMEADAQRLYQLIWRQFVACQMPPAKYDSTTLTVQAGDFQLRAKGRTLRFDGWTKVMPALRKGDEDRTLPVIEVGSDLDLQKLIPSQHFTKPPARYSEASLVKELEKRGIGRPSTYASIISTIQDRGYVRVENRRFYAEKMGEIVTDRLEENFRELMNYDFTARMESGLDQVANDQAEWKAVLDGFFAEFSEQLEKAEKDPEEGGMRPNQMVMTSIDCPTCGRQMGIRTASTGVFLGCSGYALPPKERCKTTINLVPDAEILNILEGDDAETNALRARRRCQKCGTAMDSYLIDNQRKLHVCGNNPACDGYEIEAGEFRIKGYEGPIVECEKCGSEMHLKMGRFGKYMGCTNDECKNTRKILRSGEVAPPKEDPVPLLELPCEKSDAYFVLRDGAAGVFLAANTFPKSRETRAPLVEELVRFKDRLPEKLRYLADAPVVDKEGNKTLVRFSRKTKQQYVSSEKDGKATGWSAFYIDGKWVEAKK
# Sequence of G-protein coupled receptor 55 (Q9Y2T6 whole entry): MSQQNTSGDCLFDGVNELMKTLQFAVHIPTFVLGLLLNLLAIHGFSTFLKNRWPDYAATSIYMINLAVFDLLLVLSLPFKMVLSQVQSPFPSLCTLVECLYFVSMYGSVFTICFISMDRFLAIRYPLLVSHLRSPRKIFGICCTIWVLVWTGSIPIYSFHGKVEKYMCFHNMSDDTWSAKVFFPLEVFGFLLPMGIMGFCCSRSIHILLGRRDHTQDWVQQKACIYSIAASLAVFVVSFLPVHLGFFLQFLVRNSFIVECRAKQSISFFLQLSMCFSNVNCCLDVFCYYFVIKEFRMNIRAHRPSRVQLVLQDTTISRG
# Sequence of Paired box protein Pax-8 (Q06710 whole entry): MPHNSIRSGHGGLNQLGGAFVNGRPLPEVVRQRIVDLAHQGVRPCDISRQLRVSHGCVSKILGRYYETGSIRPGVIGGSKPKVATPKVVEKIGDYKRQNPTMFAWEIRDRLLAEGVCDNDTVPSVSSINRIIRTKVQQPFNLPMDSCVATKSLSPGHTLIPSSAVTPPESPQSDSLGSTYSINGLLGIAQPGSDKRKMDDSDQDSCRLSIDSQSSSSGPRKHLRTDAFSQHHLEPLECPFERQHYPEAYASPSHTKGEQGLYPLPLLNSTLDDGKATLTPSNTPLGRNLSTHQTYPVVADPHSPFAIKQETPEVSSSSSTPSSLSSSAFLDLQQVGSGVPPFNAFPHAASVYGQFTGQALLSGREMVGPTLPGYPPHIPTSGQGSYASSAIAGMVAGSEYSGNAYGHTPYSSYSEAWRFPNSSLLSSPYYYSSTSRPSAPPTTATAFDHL
# Sequence of Beta-galactosidase (Q8VNN2 whole entry): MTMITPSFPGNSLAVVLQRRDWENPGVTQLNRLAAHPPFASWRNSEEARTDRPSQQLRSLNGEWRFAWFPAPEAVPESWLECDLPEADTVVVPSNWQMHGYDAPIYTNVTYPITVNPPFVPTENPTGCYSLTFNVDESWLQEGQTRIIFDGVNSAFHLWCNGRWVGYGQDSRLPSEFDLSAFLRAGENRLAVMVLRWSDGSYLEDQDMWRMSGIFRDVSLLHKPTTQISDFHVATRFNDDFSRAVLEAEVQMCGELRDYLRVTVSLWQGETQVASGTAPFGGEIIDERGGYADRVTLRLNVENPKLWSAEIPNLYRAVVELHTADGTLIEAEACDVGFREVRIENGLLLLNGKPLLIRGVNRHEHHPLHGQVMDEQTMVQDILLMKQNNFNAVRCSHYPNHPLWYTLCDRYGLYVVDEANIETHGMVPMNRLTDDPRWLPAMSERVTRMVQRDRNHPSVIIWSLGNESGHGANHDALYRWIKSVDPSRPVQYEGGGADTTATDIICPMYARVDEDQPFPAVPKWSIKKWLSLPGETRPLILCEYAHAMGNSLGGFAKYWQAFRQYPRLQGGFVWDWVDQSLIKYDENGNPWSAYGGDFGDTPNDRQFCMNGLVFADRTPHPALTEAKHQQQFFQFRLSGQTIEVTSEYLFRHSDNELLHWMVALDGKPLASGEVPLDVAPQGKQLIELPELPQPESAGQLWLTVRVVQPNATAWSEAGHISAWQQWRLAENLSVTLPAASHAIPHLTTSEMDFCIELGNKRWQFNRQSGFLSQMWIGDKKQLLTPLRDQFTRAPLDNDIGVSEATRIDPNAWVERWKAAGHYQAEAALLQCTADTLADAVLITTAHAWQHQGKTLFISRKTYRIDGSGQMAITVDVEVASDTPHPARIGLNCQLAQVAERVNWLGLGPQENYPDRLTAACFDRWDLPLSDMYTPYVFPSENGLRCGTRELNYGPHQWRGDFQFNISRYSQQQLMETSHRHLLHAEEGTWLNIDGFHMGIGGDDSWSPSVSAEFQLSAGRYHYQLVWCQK
# Sequence of Beta Lactamase (Q932Y6 whole entry): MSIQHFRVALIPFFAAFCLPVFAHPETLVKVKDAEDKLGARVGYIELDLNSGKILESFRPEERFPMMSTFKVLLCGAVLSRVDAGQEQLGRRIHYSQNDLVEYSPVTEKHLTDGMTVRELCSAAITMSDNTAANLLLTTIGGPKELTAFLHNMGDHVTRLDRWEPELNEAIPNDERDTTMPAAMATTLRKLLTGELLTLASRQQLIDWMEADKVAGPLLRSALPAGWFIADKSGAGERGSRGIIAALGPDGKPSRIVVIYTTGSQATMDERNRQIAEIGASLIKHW
smiles,measurement,setting,value
N#CC(C#N)=NNc1ccc(-n2ccc(C(F)(F)F)n2)cc1,EC50,[1],11.4 µM (active)
same,EC50,[2],> 133 µM (inactive)
same,EC50,[3],13.6 µM (inconclusive)
same,AC50,[4],5.57 µM (active)
same,EC50,[5],18.2 µM (inconclusive)
same,EC50,[6],> 150 µM (not active)
same,EC50,[7],> 29.9 µM (inactive)
same,IC50,[8],> 1.11 µM (active)
same,AC50,[9],2.03 µM (active)
same,AC50,[10],3.44 µM (active)
same,AC50,[11],3.38 µM (active)
same,EC50,[12],2.98 µM (active)
Cc1c(C(=O)OCC(=O)N(CC(C)C)c2c(N)n(Cc3ccccc3)c(=O)[nH]c2=O)oc2ccccc12,AC50,[13],9.46 µM (active)
CNc1cc(Cl)c2nonc2c1[N+](=O)[O-],EC50,[14],> 32 µM (inactive)
same,CC50,[15],> 1.22 µM (active)
same,IC50,[16],4.73 µM (active)
same,IC50,[17],1.11 µM (active)
same,EC50,[18],> 31.5 µM (inactive)
same,EC50,[19],4.78 µM (inconclusive)
same,IC50,[20],8.48 µM
same,IC50,[21],1.68 µM (active)
same,IC50,[22],10.4 µM (inactive)
same,EC50,[23],> 32 µM (inactive)
same,AC50,[9],5.31 µM (active)
same,IC50,[24],2.96 µM (active)
same,EC50,[25],0.752 µM (active)
same,EC50,[12],1.77 µM (active)
